Source: patent US20160151406A1, “COMBINATION CANCER THERAPY WITH C-MET INHIBITORS AND SYNTHETIC OLIGONUCLEOTIDES” (Mirna Therapeutics, Inc., priority 2014, published 2016)
Where two headings read alike, the source gives them in different places.

Key:
Format in all cases: cell-based
C3A HCC cells = assay: Single-agent cell proliferation (AlamarBlue), C3A; settings: Homo sapiens, 72 h, drug alone, proliferation 3 days post drug treatment
Protocol: (§1) Cell culture: HCC cells were maintained in EMEM medium with 10% fetal bovine serum, except Huh7 were maintained in DMEM. All cells were maintained at 37° C. in a humidified of 95% air and 5% CO2.
(§2) miR-Rx34 and tivantinib and EMD1214063 treatment: To determine the IC50 value of each drug alone, 2,000 cells per well were seeded in a 96-well plate format and treated with either tivantinib or miR-Rx34 as follows. (i) miR-Rx34 was reverse-transfected in triplicates in a serial dilution (0.03-30 nM) using RNAiMax lipofectamine. As controls, cells were also transfected with RNAiMax alone (mock). Cells were incubated with AlamarBlue (Invitrogen) 6 days post transfection to determine cellular proliferation. Proliferation data were normalized to mock-transfected cells. (ii) Tivantinib or EMD1214063, prepared as a 10 mM stock solution in dimethyl sulfoxide (DMSO), was added to cells 3 days after seeding at a final concentration ranging from 0.1 to 100 μM for tivantinib and 0.01 and 10 μM for EMD1214063. Solvent alone (1% final DMSO) was added to cells in separate wells as a control. Three days thereafter, cellular proliferation was measured by AlamarBlue and normalized to the solvent control.
(§3) Statistical analysis: Statistical analysis was done using the Excel (Microsoft) and Graphpad software. Averages and standard deviations were calculated from triplicate experiments. […]

SK-Hep1 HCC cells = assay: Single-agent cell proliferation (AlamarBlue), SK-Hep1; settings: Homo sapiens, 72 h, drug alone, proliferation 3 days post drug treatment, read-out: EMD1214063 IC50
Protocol: as §1, §2, §3

HepG2 HCC cells = assay: Single-agent cell proliferation (AlamarBlue), HepG2; settings: Homo sapiens, 72 h, drug alone, proliferation 3 days post drug treatment, read-out: Tivantinib IC50
Protocol: as §1, §2, §3

Huh7 HCC cells = assay: Single-agent cell proliferation (AlamarBlue), Huh7; settings: Homo sapiens, Huh-7, 72 h, drug alone, proliferation 3 days post drug treatment, read-out: Tivantinib IC50
Protocol: as §1, §2, §3

Hep3b HCC cells = assay: Single-agent cell proliferation (AlamarBlue), Hep3b; settings: Homo sapiens, 72 h, drug alone, proliferation 3 days post drug treatment, read-out: Tivantinib IC50
Protocol: as §1, §2, §3

Row | IC50 (C3A HCC cells; read-out: EMD1214063 IC50) | IC50 (SK-Hep1 HCC cells) | IC50 (C3A HCC cells; read-out: Tivantinib IC50) | IC50 (HepG2 HCC cells) | IC50 (Huh7 HCC cells) | IC50 (Hep3b HCC cells) | Compound
1 | 7 µM | 6.7 µM |  |  |  |  | CN1CCC(COc2cnc(-c3cccc(Cn4nc(-c5cccc(C#N)c5)ccc4=O)c3)nc2)CC1 [EMD1214063, 3-(1-(3-(5-((1-methylpiperidin-4-yl)methoxy)pyrimidin-2-yl)benzyl)-1,6-dihydro-6-oxopyridazin-3-yl)benzonitrile]
2 |  |  | 2.3 to 7.42 µM | 8.99 to 25 µM | 1.5 to 3.32 µM | 4.63 to 18.6 µM | O=C1NC(=O)[C@@H](c2cn3c4c(cccc24)CCC3)[C@@H]1c1c[nH]c2ccccc12 [Tivantinib, (3R,4R)-3-(5,6-Dihydro-4H-pyrrolo[3,2,1-ij]quinolin-1-yl)-4-(1H-indol-3-yl)-2,5-pyrrolidinedione]
